# From US8575337B2, “Oxazolidinone derivative having fused ring” (Research Foundation Itsuu Laboratory, priority 2008, dated 2013)
# Key:
# Test in all cases: MIC determination, CLSI standard method
# Type in all cases: cell-based
# E. faecium SR7940 (VRE) = conditions: Enterococcus faecium, cation-adjusted Mueller Hinton Broth, inoculum about 5×10^5 CFU/mL
# Method: (§1) The compounds of the above Examples were tested for antimicrobial activity.
# (§2) Minimal inhibitory concentration (MIC: μg/ml) against different strains of bacteria was determined according to the standard method recommended by CLSI (clinical and laboratory standards institute). The samples used were prepared by dissolving the compound in DMSO at the concentration 1280 μg/mL, followed by a two fold serial dilution with DMSO. The sample was added to a bacteria suspension at the concentration of 5%, and MIC was determined. Cation-adjusted Mueller Hinton Broth was used as a culture media. The inoculation concentration was about 5×10^5 CFU/mL.
# S. aureus NRS271 (LZD-R) = conditions: Staphylococcus aureus, cation-adjusted Mueller Hinton Broth, inoculum about 5×10^5 CFU/mL
# Method: as §1, §2
# S. aureus SR3637 (MRSA) = conditions: Staphylococcus aureus, cation-adjusted Mueller Hinton Broth, inoculum about 5×10^5 CFU/mL
# Method: as §1, §2
MIC (E. faecium SR7940 (VRE)) [µg/mL],MIC (S. aureus NRS271 (LZD-R)) [µg/mL],MIC (S. aureus SR3637 (MRSA)) [µg/mL],SMILES
0.25,2,0.25,CC(=O)NC[C@H]1CN(c2ccc(-c3ccn4ccnc4c3)c(F)c2)C(=O)O1 [Example 18]
2,32,2,"CC(=O)NC[C@H]1CN(c2ccc(N3CCOCC3)c(F)c2)C(=O)O1 [Linezolid, (S)-n-[[3-[3-fluoro-4-(4-morpholinyl)phenyl]-2-oxo-5-oxazolidinyl]methyl]acetamide]"
